Data from ChEMBL document CHEMBL6103648, “AI-Driven Discovery of Highly Specific and Efficacious hCES2A Inhibitors for Ameliorating Irinotecan-Triggered Gut Toxicity” (J Med Chem, 2025).
Active and inactive are the calls of the source. The rule behind the calls is not given here.

Legend:
[1] = Drug distribution in deep organs of C57BL/6J mouse at 100 mg/kg, po administered as single dose measured for 0.5 to 3 hrs by UHPLC-Q-Orbitrap HRMS analysis; type: ADME, organism-based, Deep organ; details: in vivo, time 0.5-3 hrs
[2] = Sub-acute toxicity in C57BL/6J mouse assessed as abnormality in liver at 100 mg/kg/day, po treated for 14 days consecutively by H and E staining based analysis; type: organism-based; details: in vivo, 336 h, time 14 day
[3] = Drug distribution in serum of C57BL/6J mouse at 100 mg/kg, po administered as single dose measured for 0.5 to 3 hrs by UHPLC-Q-Orbitrap HRMS analysis; type: ADME, organism-based; details: in vivo, time 0.5-3 hrs
Mus musculus [4] = experiment: Inhibition of irinotecan-induced anti-tumor activity in C57BL/6J mouse bearing tumor cells assessed as increase in tumor volume at 25 to 50 mg/kg/day, po treated for 14 days; type: functional, organism-based; details: dose 25-50 mg/kg/day, time 14.0 day
Cytochrome P450 1A2 = molecular target: T1, Cytochrome P450 1A2 (Homo sapiens, UniProt P05177); experiment: Inhibition of CYP1A2 in human liver microsomes using phenacetin as substrate upto 10 uM; type: ADME, Microsome
T1 sequence (P05177 whole entry): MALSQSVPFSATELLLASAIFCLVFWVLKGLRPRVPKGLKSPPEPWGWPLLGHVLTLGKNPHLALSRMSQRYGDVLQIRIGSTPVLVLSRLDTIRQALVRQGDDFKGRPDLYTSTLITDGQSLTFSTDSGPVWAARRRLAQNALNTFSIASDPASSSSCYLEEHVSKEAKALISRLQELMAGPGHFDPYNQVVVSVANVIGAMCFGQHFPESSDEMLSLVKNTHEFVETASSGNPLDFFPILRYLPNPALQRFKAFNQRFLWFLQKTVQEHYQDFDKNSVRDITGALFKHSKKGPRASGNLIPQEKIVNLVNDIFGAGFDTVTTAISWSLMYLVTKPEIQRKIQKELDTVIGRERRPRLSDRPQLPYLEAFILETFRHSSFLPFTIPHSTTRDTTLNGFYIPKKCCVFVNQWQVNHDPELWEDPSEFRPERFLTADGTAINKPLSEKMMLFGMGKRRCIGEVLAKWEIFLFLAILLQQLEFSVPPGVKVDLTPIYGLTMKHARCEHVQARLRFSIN

[5] = Efflux ratio of apparent permeability across basal to apical side over apical to basal side in human Caco-2 cells at 100 uM incubated for 120 mins by UPLC-MS/MS analysis; type: ADME, cell-based
[6] = Sub-acute toxicity in C57BL/6J mouse assessed as change in movement behaviors at 100 mg/kg/day, po treated for 14 days consecutively; type: organism-based; details: in vivo, 336 h, time 14 day
[7] = Apparent permeability across apical to basal side in human Caco-2 cells at 50 uM incubated for 120 mins by UPLC-MS/MS analysis; type: ADME, cell-based
Acetylcholinesterase = Acetylcholinesterase (Homo sapiens, UniProt P22303); experiment: Inhibition of human AChE using ATCI as substrate incubated for 3 mins by Ellman's method
[8] = Sub-acute toxicity in C57BL/6J mouse assessed as abnormality in stomach at 100 mg/kg/day, po treated for 14 days consecutively by H and E staining based analysis; type: organism-based; details: in vivo, 336 h, time 14 day
[9] = Sub-acute toxicity in C57BL/6J mouse assessed as change in UREA level at 100 mg/kg/day, po treated for 14 days consecutively; type: organism-based; details: in vivo, 336 h, time 14 day
Homo sapiens [10] = species on record: Homo sapiens; experiment: Covalent binding affinity to human CES2A Ser228 catalytic site assessed as covalent modification at 10 uM incubated for 4 hrs by nano-LC-MS/MS analysis
[11] = Sub-acute toxicity in C57BL/6J mouse assessed as change in AST level at 100 mg/kg/day, po treated for 14 days consecutively; type: organism-based; details: in vivo, 336 h, time 14 day
Mus musculus [12] = experiment: Inhibition of irinotecan-triggered gut toxicity in C57BL/6J mouse bearing tumor cells assessed as decrease in TNF-alpha level in colon tissue administered orally treated for 14 days; type: functional, organism-based; details: dose 25-50 mg/kg/day, route po, time 14.0 day
[13] = Permeability across apical to basal side in human Caco-2 cells assessed as cumulative penetration amount at 50 uM incubated for 120 mins by UPLC-MS/MS analysis; type: ADME, cell-based; details: caco-2, 2 h
Mus musculus [14] = experiment: Inhibition of irinotecan-triggered gut toxicity in C57BL/6J mouse bearing tumor cells assessed as decrease in serum UREA level at 25 to 50 mg/kg/day, po treated for 14 days; type: functional, organism-based; details: dose 25-50 mg/kg/day, time 14.0 day
[15] = Sub-acute toxicity in C57BL/6J mouse assessed as change in ALB level at 100 mg/kg/day, po treated for 14 days consecutively; type: organism-based; details: in vivo, 336 h, time 14 day
Homo sapiens [16] = species on record: Homo sapiens; experiment: Irreversible inhibition of human CES2A measured after 12 hrs by dialysis assay
[17] = Apparent permeability across apical to basal side in human Caco-2 cells at 25 uM incubated for 120 mins by UPLC-MS/MS analysis; type: ADME, cell-based
[18] = Apparent permeability across basal to apical side in human Caco-2 cells at 50 uM incubated for 120 mins by UPLC-MS/MS analysis; type: ADME, cell-based
[19] = (§1) Covalent inhibition of human CES2A
Homo sapiens [20] = species on record: Homo sapiens; experiment: as §1
[21] = Inhibition of human CES2A using fluorescein diacetate as substrate preincubated for 3 mins followed by substrate addition measured after 30 mins by fluorescence based assay
[22] = Sub-acute toxicity in C57BL/6J mouse assessed as change in ALT level at 100 mg/kg/day, po treated for 14 days consecutively; type: organism-based; details: in vivo, 336 h, time 14 day
Mus musculus [23] = experiment: Inhibition of irinotecan-triggered gut toxicity in C57BL/6J mouse bearing tumor cells assessed as increase in occludin level in colon tissue at 25 to 50 mg/kg/day, po treated for 14 days by immunofluorescence based analysis; type: functional, organism-based; details: dose 25-50 mg/kg/day, time 14.0 day
[24] = molecular target: T2, Palmitoleoyl-protein carboxylesterase NOTUM (Homo sapiens, UniProt Q6P988); experiment: Inhibition of human Notum using OPTS as substrate preincubated for 1 min followed by substrate addition by fluorescence based assay
T2 sequence (Q6P988 whole entry): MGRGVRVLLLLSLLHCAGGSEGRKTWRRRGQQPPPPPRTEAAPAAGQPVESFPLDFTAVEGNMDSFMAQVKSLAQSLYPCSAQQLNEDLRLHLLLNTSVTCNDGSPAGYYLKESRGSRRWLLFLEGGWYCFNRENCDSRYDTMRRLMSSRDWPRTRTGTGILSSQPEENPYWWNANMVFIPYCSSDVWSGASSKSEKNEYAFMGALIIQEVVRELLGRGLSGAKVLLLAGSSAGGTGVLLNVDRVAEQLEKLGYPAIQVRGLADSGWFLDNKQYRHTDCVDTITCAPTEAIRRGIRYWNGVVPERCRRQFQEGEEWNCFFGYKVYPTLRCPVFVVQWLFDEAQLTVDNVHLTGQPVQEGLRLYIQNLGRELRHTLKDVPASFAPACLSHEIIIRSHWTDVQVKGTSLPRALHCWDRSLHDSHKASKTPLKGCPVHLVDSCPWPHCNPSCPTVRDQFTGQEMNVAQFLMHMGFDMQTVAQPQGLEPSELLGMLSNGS

[25] = Inhibition of human pancreatic lipase using DDAO-ol as substrate preincubated for 3 mins followed by substrate addition by fluorescence based assay

Chain of Acetylcholinesterase (P22303 whole entry): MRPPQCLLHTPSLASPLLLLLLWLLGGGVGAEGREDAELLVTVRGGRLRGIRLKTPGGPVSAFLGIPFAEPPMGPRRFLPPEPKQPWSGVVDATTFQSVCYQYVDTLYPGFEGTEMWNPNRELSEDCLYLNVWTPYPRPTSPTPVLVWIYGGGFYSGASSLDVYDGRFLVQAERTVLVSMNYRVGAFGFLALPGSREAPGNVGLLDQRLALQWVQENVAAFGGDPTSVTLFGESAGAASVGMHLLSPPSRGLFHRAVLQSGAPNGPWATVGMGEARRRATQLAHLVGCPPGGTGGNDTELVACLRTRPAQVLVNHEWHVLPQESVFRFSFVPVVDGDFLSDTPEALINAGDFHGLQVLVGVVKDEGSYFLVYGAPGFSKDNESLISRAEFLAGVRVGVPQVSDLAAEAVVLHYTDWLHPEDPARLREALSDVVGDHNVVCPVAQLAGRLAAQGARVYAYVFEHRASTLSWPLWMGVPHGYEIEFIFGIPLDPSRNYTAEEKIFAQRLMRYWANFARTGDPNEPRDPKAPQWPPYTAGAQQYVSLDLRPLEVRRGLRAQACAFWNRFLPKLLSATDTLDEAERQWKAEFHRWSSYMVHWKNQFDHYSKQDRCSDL

**Q.** What does the source list for `CCN(C)C(=O)Oc1ccc(C(=O)N2CCC(Cc3ccccc3)CC2)cc1OC`?
**A.** Drug uptake [1]: Not_active; Activity [2]: Non-toxic; Drug uptake [3]: Not_active; inhibition (Mus musculus [4]): inactive; inhibition (INH) (Cytochrome P450 1A2): Not_active; efflux ratio at 2 h, 100 µM [5]: 0.66; Activity [6]: Non-toxic; Papp A→B at 2 h, 50 µM [7]: 15.6 ×10⁻⁶ cm/s; IC50 (Acetylcholinesterase): > 10000 nM; Activity [8]: Non-toxic; Activity [9]: Non-toxic; Activity (Homo sapiens [10]): Active; Compound Exhibited As Covalent Inhibitor; Activity [11]: Non-toxic; inhibition (Mus musculus [12]): Active; Activity [13]: 6.31 µM; inhibition (Mus musculus [14]): Active; Activity [15]: Non-toxic; inhibition (Homo sapiens [16]): Active; Papp A→B at 2 h, 25 µM [17]: 15.7 ×10⁻⁶ cm/s; Papp B→A at 2 h, 50 µM [18]: 10.5 ×10⁻⁶ cm/s; Ki [19]: 0.065 nM; Kinact (Homo sapiens [20]): 0.033 min⁻¹; IC50 [21]: 0.69 nM; Activity [22]: Non-toxic; inhibition (Mus musculus [23]): Active; IC50 [24]: > 10000 nM; IC50 [25]: > 10000 nM
